These results are taken from ChEMBL document CHEMBL1125599, “Cholinergic activity of acetylenic imidazoles and related compounds” (J Med Chem, 1991).

Usually Ki stands for a measure of affinity in units of concentration, obtained from inhibition or displacement. The ED50 is the dose at which the effect has come halfway, by size or by number of responders. A high value points to a need for a large dose.

In test [1] the target is Muscarinic acetylcholine receptor. Kind of test: Binding affinity to muscarinic acetylcholine receptor was determined in presence of [3H]QNB radioligand (in vitro). The test is classed as protein assay.
Test [2] has as its system Mus musculus. Kind of test: ED50 value determined as oxotremorine antagonism by measuring tremors in mice (in vivo). The test is classed as functional.
The test system of test [3] is Mus musculus. Kind of test: ED50 value determined as oxotremorine antagonism by measuring lacrimation in mice (in vivo). The class given is functional.
Test [4] deals with Mus musculus. Kind of test: ED50 value as cholinergic agonist by measuring salivation in mice (in vivo). The test is classed as functional.
Test [5] concerns Mus musculus. Kind of test: ED50 value as cholinergic agonist by measuring tremors in mice (in vivo). The test is classed as functional.
For test [6], the system named is Mus musculus. Kind of test: ED50 value determined as oxotremorine antagonism by measuring salivation in mice (in vivo). The class given is functional.
Test [7] concerns Mus musculus. Kind of test: ED50 value as cholinergic agonism by measuring lacrimation in mice (in vivo). The test is classed as functional.
For test [8], the target named is Muscarinic acetylcholine receptor. Kind of test: Binding affinity to muscarinic acetylcholine receptor was determined in presence of [3H]OXO-M radioligand (in vitro). The test is classed as protein assay.
For test [9], the target named is Muscarinic acetylcholine receptor (Rattus norvegicus) (UniProt P08482+P08483+P08485+P08911+P10980). Kind of test: Ratio of Ki value for QNB to that of Ki value for Oxo-M. The class given is protein assay.

Take `CCOC(=O)N(C)CC#CCN1CCCC1`: the Ki came to 4.219 µM in [1] and 0.065 µM in test [8]. For the same molecule, the ED50 in the test with Mus musculus [2] is above 100 mg/kg; in the test with Mus musculus [3] it was above 100 mg/kg; with Mus musculus [4] it was above 100 mg/kg; with Mus musculus [5], 66 mg/kg; in the test on Mus musculus [6], above 100 mg/kg; in the test with Mus musculus [7] it was above 100 mg/kg. Also, the Ki ratio in test [9] is 65.
Turning to `O=C1OCCN1CC#CCN1CCCC1`, the figures for the inhibition constant Ki in [1] and in test [8] were 1.362 µM and 0.0089 µM, respectively. Moreover, the ED50 in the test on Mus musculus [2] was above 10 mg/kg; in the test with Mus musculus [3] it was above 10 mg/kg; in the test on Mus musculus [4] it was 5.4 mg/kg; in the test with Mus musculus [5], 3.7 mg/kg; in the test on Mus musculus [6] it was above 10 mg/kg; in the test with Mus musculus [7], above 10 mg/kg. Also, in [9], the Ki ratio stood at 153.
Turning to `COC(=O)N(C)CC#CCN1CCCC1`, the inhibition constant (Ki) was determined as 0.55 µM in [1] and 0.0026 µM in [8]. The median effective dose (ED50) with Mus musculus [2] is above 10 mg/kg; with Mus musculus [3], above 10 mg/kg; in the test on Mus musculus [4], 5.5 mg/kg; in the test with Mus musculus [5], 1.4 mg/kg; in the test on Mus musculus [6], above 10 mg/kg; in the test on Mus musculus [7], 3 mg/kg. For the same molecule, in [9], the Ki ratio stood at 211.
Turning to `CC1CCC(=O)N1CC#CCN1CCCC1` (stereo not given), the results for the Ki in [1] and in [8] were 0.014 µM and 0.0015 µM, respectively. The ED50 is 1.7 mg/kg with Mus musculus [2]; 0.55 mg/kg in the test on Mus musculus [3]; above 30 mg/kg in the test on Mus musculus [4]; above 30 mg/kg in the test with Mus musculus [5]; 2 mg/kg in the test with Mus musculus [6]; above 30 mg/kg with Mus musculus [7]. Also, the Ki ratio in [9] was 9.4.
For the molecule `CN(C)C(=O)N(C)CC#CCN1CCCC1`, the figures for the Ki in test [1] and in test [8] were 0.14 µM and 0.0036 µM, respectively. The ED50 in the test on Mus musculus [2] is above 10 mg/kg; in the test with Mus musculus [3] it was 6.6 mg/kg; in the test with Mus musculus [4], above 10 mg/kg; with Mus musculus [5], 1.2 mg/kg; in the test on Mus musculus [6], above 10 mg/kg; with Mus musculus [7], above 10 mg/kg. In addition, the Ki ratio in test [9] came to 39.
In the case of `COC(=O)N(C)C(C)C#CCN1CCCC1` (stereo not given), the inhibitory constant (Ki) in test [1] turned out to be 0.064 µM; in [8], 0.0015 µM. In addition, the ED50 in the test with Mus musculus [2] is above 100 mg/kg; in the test on Mus musculus [3], above 100 mg/kg; with Mus musculus [4], 14.2 mg/kg; in the test with Mus musculus [5], 9.7 mg/kg; in the test on Mus musculus [6] it was above 100 mg/kg; in the test on Mus musculus [7], 20.9 mg/kg. For the same molecule, the Ki ratio in test [9] was 43.
Consider `CCOC(=O)N(C)C(C)C#CCN1CCCC1` (stereo not given), for which the inhibitory constant (Ki) in test [1] stood at 0.11 µM; in [8], 0.022 µM. Moreover, the ED50 with Mus musculus [2] was above 100 mg/kg; with Mus musculus [3], 97 mg/kg; in the test with Mus musculus [4] it was above 100 mg/kg; with Mus musculus [5], above 100 mg/kg; in the test on Mus musculus [6] it was above 100 mg/kg; in the test on Mus musculus [7], above 100 mg/kg. Moreover, the Ki ratio in [9] was 5.
Regarding `Cc1cncn1CC#CC(C)N1CCCC1=O` (stereo not given), the inhibitory constant (Ki) in [1] was 0.0168 µM; in test [8], 0.00522 µM. Besides, the ED50 was 25.4 mg/kg with Mus musculus [2]; 0.45 mg/kg with Mus musculus [3]; above 100 mg/kg in the test with Mus musculus [4]; above 100 mg/kg in the test on Mus musculus [5]; 2.5 mg/kg in the test with Mus musculus [6]; above 100 mg/kg in the test on Mus musculus [7]. Besides, in test [9], the Ki ratio was determined as 3.2.
In the case of `Cc1cncn1CC#CCN1C(=O)CCC1C` (stereo not given), the results for the inhibition constant (Ki) in test [1] and in [8] were 0.0116 µM and 0.00168 µM, respectively. Further, the ED50 in the test with Mus musculus [2] was 14.2 mg/kg; with Mus musculus [3], 0.8 mg/kg; in the test with Mus musculus [4], above 100 mg/kg; with Mus musculus [5], above 100 mg/kg; in the test on Mus musculus [6], 1.4 mg/kg; in the test on Mus musculus [7], above 100 mg/kg. The Ki ratio in test [9] was found to be 6.9.
In the case of `COC(=O)N(C)C(C)C#CCn1ccnc1` (stereo not given), the Ki in test [1] was 1.355 µM; in test [8], 0.013 µM. The ED50 with Mus musculus [2] was above 100 mg/kg; in the test with Mus musculus [3], above 100 mg/kg; with Mus musculus [4], 8 mg/kg; in the test with Mus musculus [5] it was 6.6 mg/kg; with Mus musculus [6] it was above 100 mg/kg; in the test with Mus musculus [7] it was 8 mg/kg. Moreover, the Ki ratio in test [9] was determined as 104.
